Residues, ends and D or L forms follow the SMILES beside them.
What was measured:
furin = test system: T1, furin; experiment: Cleavage of R7 by furin in vitro (RP-HPLC); type: in vitro ADME; conditions: human, recombinant human furin enzyme, furin 8 U/reaction, 25 °C, RP-HPLC peak area, read-out: Cleavage efficiency
T1 construct: purchased NEB (New England Biolabs) P8077
Experimental: Chimeric peptide R7 was treated with recombinant human furin enzyme (8 U/reaction; NEB P8077) in 50-μL reactions supplemented with in 20 mM HEPES, 0.1% Triton X-100, 1 mM CaCl2, 0.2 mM β-mercaptoethanol. The reaction mixtures were incubated at 25 °C for 65 h. An aliquot of 50 μL sample was taken at different time points, and analyzed by RP-HPLC or MALDI-TOF MS. […] The cleavage rate of R7 was calculated from the peak area as follows: Cleavage rate (%) = [(Area0 –Areat)/Area0] × 100, where 0 and t present digestion time[58].

MDR E. coli CVCC195 = experiment: Antibacterial activity after incubation in mouse serum (inhibition zone); type: cell-based, Escherichia coli; conditions: until 8 h of incubation
Experimental: Serum stability of R7 and its parent-L7 was tested as previously described with minor modifications[46],[53]. Briefly, each peptide was added to the 25% mouse serum to a final concentration of 0.5 mM; 250 µL aliquots of samples were taken at 0, 0.5, 1, 2, 4 and 8 h, and mixed with 20 µL 15% trichloroacetic acid (TCA). The samples were incubated at 4 °C for 15 min and centrifuged for 10 min at 12,000 rpm. The supernatants were analyzed by RP-HPLC or inhibition zone method. Moreover, after incubation in serum for 2 h, R7 was analyzed by matrix assisted laser desorption/ionization-time of flight mass spectrometry (MALDI-TOF MS) and high-performance liquid chromatography-mass spectrometry (HPLC-MS), respectively.

[1] = test system: E. coli, S. typhimurium and S. aureus; type: cell-based; conditions: tested S. aureus strains
Experimental: The minimum inhibitory concentration (MIC) and minimum bactericidal concentration (MBC) of peptides were determined by the microtiter broth dilution method according to Clinical and Laboratory Standards Institute (CLSI) guidelines. […] PBS was used as the negative control. […] The MBC value was calculated as the lowest concentration of peptides resulting in a 99.9% reduction of the original inoculum. All experiments were repeated three times.

[2] = Detection of R7 in mouse blood after injection (RP-HPLC); type: in vivo; conditions: R7 10 ~ 50 mg/kg intraperitoneal, intravenous or subcutaneous, blood at 5, 30, 60 and 120 min
Experimental: To further study the cleavage efficiency of chimeric peptide R7, the mice were injected with R7 (10 ~ 50 mg/kg) by different routes, including intraperitoneal, intravenous or subcutaneous ones, respectively; blood was taken from the orbits at different time (5, 30, 60, and 120 min, respectively) and detected by RP-HPLC. […] Here are several conditions that may negatively impact RP-HPLC detection results: (i) R7 may bind to other proteins such as plasma protein and form aggregates; (ii) the concentration of R7 after cleavage was too low to detect target peptide by RP-HPLC; (iii) R7 may be degraded by some cellular proteases present in serum in vivo[45]. Furthermore, we used more sensitive liquid chromatograph mass spectrometer (LC-MS) to detect R7 and its possible degradation products in mice. […] We further used MALDI-TOF MS with higher resolution to analyze R7 degradation products in blood. As shown in Supplementary Table 5, R7 was cleaved into two dual-function fragments in the serum principally, including one from position 1 to 15 that can target LPS and the other mainly from position 18 to 35 that has antibacterial activity. […] In addtion, in vivo stability of peptides in blood has been well modeled by ex vivo stability in serum. […] In fact, several strategies have been proposed to improve the stability of AMPs. […]

For `CSCC[C@H](NC(=O)[C@H](CCCNC(=N)N)NC(=O)[C@H](Cc1c[nH]c2ccccc12)NC(=O)[C@H](C)NC(=O)[C@H](Cc1c[nH]c2ccccc12)NC(=O)[C@H](CCCNC(=N)N)NC(=O)[C@H](Cc1c[nH]c2ccccc12)NC(=O)[C@H](C)NC(=O)[C@H](CCCCN)NC(=O)[C@H](Cc1ccccc1)NC(=O)[C@H](CCCNC(=N)N)NC(=O)[C@H](CCCNC(=N)N)NC(=O)[C@H](CCCCN)NC(=O)[C@H](CCCNC(=N)N)NC(=O)[C@H](CCCCN)NC(=O)[C@H](Cc1ccccc1)NC(=O)[C@H](Cc1ccccc1)NC(=O)[C@H](CO)NC(=O)[C@H](C)NC(=O)[C@H](CCCNC(=N)N)NC(=O)[C@@H](NC(=O)[C@H](CCCCN)NC(=O)[C@H](Cc1c[nH]c2ccccc12)NC(=O)[C@H](CCCNC(=N)N)NC(=O)CNC(=O)[C@H](CCC(N)=O)NC(=O)[C@@H](NC(=O)[C@@H](N)CCCNC(=N)N)C(C)C)C(C)C)C(=O)N[C@@H](CCCCN)C(=O)N[C@@H](CCCCN)C(=O)N[C@@H](CC(C)C)C(=O)N[C@@H](C)C(=O)N[C@@H](C)C(=O)N1CCC[C@H]1C(=O)N[C@@H](CO)C(=O)O` [R7] (H-RVQGRWKVRASFFKRKRRFKAWRWAWRMKKLAAPS-OH), the metabolised at 4 h (furin; digestion 4 h) was 14.5%, the metabolised at 8 h (furin; digestion 8 h) was 17.8% and the metabolised at 18 h (furin; digestion 18 h) was 29.5%. For the same compound, the metabolised at 24 h (furin; digestion 24 h) was 36.2%, the metabolised at 30 h (furin; digestion 30 h) was 42.5% and the metabolised at 44 h (furin; digestion 44 h) was 52.7%. The metabolised at 53 h (furin; digestion 53 h) was 57.4%, the metabolised at 65 h (furin; digestion 65 h) was 61.8% and the “change of antibacterial activity in mouse serum” value (MDR E. coli CVCC195) was “did not changed”. For the same compound, the “increase of activity compared to parent peptides (LBP14-RKRR and L7)” value [1] was ≥ 2 fold and the “target peak in mouse blood” value [2] was “not detected”.

Reference: article PMC10654507, “A cleavable chimeric peptide with targeting and killing domains enhances LPS neutralization and antibacterial properties against multi-drug resistant E. coli” (Communications Biology, 2023)
